Laboratory results: paper PMC3995910, “Effect of Proline Analogues on Activity of Human Prolyl Hydroxylase and the Regulation of HIF Signal Transduction Pathway” (PLoS ONE, 2014)

Molecular target: T1, Prolyl hydroxylase 3 (PHD3) (Homo sapiens, UniProt Q9H6Z9)
T1 construct: gene EGLN3; recombinant human PHD3 expressed in E. coli, ~45 kDa
Assay: fluorescence-based 2OG consumption assay (OPD derivatization), double-reciprocal kinetics
Assay type: biochemical

T1 sequence (Q9H6Z9 whole entry): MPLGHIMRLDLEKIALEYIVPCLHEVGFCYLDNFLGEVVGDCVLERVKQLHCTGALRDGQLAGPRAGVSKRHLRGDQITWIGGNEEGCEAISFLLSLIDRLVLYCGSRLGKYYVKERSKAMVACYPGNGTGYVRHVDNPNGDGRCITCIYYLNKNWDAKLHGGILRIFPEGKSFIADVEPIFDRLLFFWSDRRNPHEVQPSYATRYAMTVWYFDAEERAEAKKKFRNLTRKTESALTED

| Ki [nM] | Structure (SMILES) |
| --- | --- |
| 1090 | O=C(Nc1ccccc1NC(=O)[C@H]1CCCN1)[C@H]1CCCN1 [PA1] |
| 2380 | O=C(O)[C@H]1CCCN1C(=O)OCc1ccccc1 [PA2] |
